System: pooled human hepatocytes
Experiment: Incubation with pooled human hepatocytes, metabolite identification by LC-QTOF-MS
Format: in vitro ADME
Conditions: 5 µM, HHeps, up to 3 h
Procedure: Incubations of the SCRAs with HHeps and subsequent metabolite identification were carried out as previously described in a published procedure, with slight modifications (Åstrand et al. [2019]; Stalberga et al. [2022]). To summarise, 5 µM of each SCRA was incubated with HHeps (100,000 cells) at 37 °C, 5% CO2 in a total volume of 100 μL of Williams E medium supplemented with L-glutamine and HEPES. Incubations were carried out in duplicate and quenched by the addition of 100 µL ice-cold acetonitrile at 0, 0.5, 1 and 3 h, after which the incubates were centrifuged at 1,100 × g for 15 min at 4 °C. The resulting supernatant was analysed by LC–QTOF-MS. On each day, negative controls (HHeps without drug) and degradation controls (drug without HHeps) were also incubated for 3 h.
Chromatographic separation was achieved using an Agilent 1290 Infinity ultra-high performance liquid chromatography (UHPLC) system (Agilent Technologies, Kista, Sweden); 4 µL supernatant was injected onto an Acquity HSS T3 column (150 × 2.1 mm, 1.8 μm) fitted with an Acquity VanGuard precolumn (Waters, Sollentuna, Sweden). Gradient elution was employed using 0.1% formic acid in water (A) and 0.1% formic acid in acetonitrile (B) mobile phases: 1% B (0–0.6 min); 1–20% B (0.6–0.7 min); 20–85% B (0.7–13 min); 85–95% B (13–15 min); 95% B (15–18 min); 95–1% B (18–18.1 min); 1% B (18.1–19 min), with a flow rate of 0.5 mL/min and column temperature of 60 °C. The UHPLC system was coupled to an Agilent 6550 iFunnel QTOF mass spectrometer (Agilent Technologies, Kista, Sweden) with a Dual Agilent Jet Stream electrospray ionisation (ESI) source. […]
To identify structure–metabolism relationships, the total proportion (%) that each type of biotransformation contributed to the summed abundance of metabolites (as measured by peak area) across the 0.5, 1 and 3 h incubations was determined. […]

**Q.** With C=CCCCn1nc(C(=O)NC(C(=O)OC)C(C)(C)C)c2ccccc21 (stereo not drawn) [MDMB-4en-PINACA, methyl 3,3-dimethyl-2-{[1-(pent-4-en-1-yl)-1H-indazole-3-carbonyl]amino}butanoate] as the compound, how does the most abundant metabolite read?
**A.** Its most abundant metabolite is “ester hydrolysis metabolite”.

**Q.** C=CCCCn1cc(C(=O)NC(C(=O)OC)C(C)(C)C)c2ccccc21 (stereo not drawn) [MDMB-4en-PICA] was tested. Which most abundant metabolite did it give?
**A.** The most abundant metabolite was “ester hydrolysis metabolite”.

**Q.** C=CCCCN1C(=O)/C(=N\NC(=O)c2ccccc2)c2ccccc21 [BZO-4en-POXIZID] was tested. Which “abundances of metabolites relative to the parent compound” value did it give?
**A.** The value was “small relative to the parent compound”.

From article PMC12367891, “Structure–metabolism relationships of 4-pentenyl synthetic cannabinoid receptor agonists using in vitro human hepatocyte incubations and high-resolution mass spectrometry” (Archives of Toxicology, 2025)
